Results: article PMC7719495 (BioMed Research International, 2020)
One block for each compound: values may come before it.

Legend:
[1] = tested on: plasma protein; set-up: method as in earlier work; conditions: cited from earlier work
[2] = HPLC analysis of the content of AMPB in mice plasma and brain tissue; format: in vivo, KM mice; conditions: compared with AMPB group; AMPB 3 mg/kg iv q.d.; POS 90 mg/kg gavage, zosuquidar 20 mg/kg, Ko143 10 mg/kg, elacridar 2.5 mg/kg iv, b.i.d. 4 days; 4 h after last administration
Experimental: POS, zosuquidar, Ko143, and elacridar were administered for 4 consecutive days (b.i.d., 9 a.m. and 9 p.m).
4 h after the last administration, the mouse eyeball was taken for blood sample acquisition, in a commercial 1.5 mL centrifuge tube containing the anticoagulant EDTA, with sterilized ophthalmic bending forceps. Samples were centrifuged at 3000 rpm for 10 min. And the bottom plasma was gently extracted and separated with micropipeter. Then, plasma proteins were precipitated by adding 300 μL methanol to 100 μL plasma, followed by vortex for 10 s and let it stand for 5 min. After that, the samples were centrifuged at 4°C, 13000 rpm, for 10 min. Finally, the plasma test solution was fulfilled by filtering it through the 0.22 μm microporous membrane.
After the completion of blood, the mice brain was quickly removed. Moderate brain tissue samples were mixed with physiological saline for homogenate preparation. And proteins were precipitated by adding 300 μL methanol to 100 μL homogenate, followed by vortex for 10 s, and let it stand for 5 min, and then centrifuged at 4°C, 13000 rpm, for 10 min. Finally, the brain test solution was fulfilled by filtering it through the 0.22 μm microporous membrane. […] The analytical column was a Diamonsil (2) C18 column (250 mm ×4.6 mm, 5 μm) maintained at 30°C. The mobile phase consisted of 10 mM ammonium acetate aqueous solution (PH4) and acetonitrile, with the flow rate of 1.0 mL/min and the injection volume of 50 μL.

[3] = tested on: mice brain capillary endothelial cells (BCECs); test: AMPB uptake by BCECs, HPLC; format: cell-based; conditions: 30, 60, 120, 180 min, compared with AMPB group
Experimental: The mice brain capillary endothelial cells (BCECs, cat. no. BNCC35187) were purchased from Beijing Beina Chuanglian Biotechnology Research Institute (Beijing, China). BCECs were resuscitated in a constant temperature water bath at 37°C and then inoculated in a petri dish. The cells were cultured with the 1640 medium containing 10% FBS in a 5% CO2 cell incubator at 37°C. The culture medium was changed every other day, and the cells were digested with 0.25% trypsin when they converged and proliferated to form a full layer at the bottom of the dish. 1 mL cell suspensions were seeded in 12-well plates at a density of 1 × 10^5 cells/mL per well. The drug was administered after the cells being completely adherent to the wall. 2.16 μM AMBP solution was prepared with the 1640 medium and then was used to prepare POS solution at concentrations of 2.85 μM, 5.71 μM, and 11.42 μM, 5 μM zosuquidar, 5 μM Ko143, 1 mM elacridar, and 40 g/L albumin solution, respectively.
The cells were randomly divided into the following 8 groups: 2.16 μM AMBP, 2.16 μM AMBP+POS (2.85 μM, 5.71 μM, and 11.42 μM), 2.16 μM AMBP+5 μM zosuquidar, 2.16 μM AMBP+5 μM Ko143, 2.16 μM AMBP+1 mM elacridar, and 2.16 μM AMBP+40 g/L albumin. Three wells were set at each time point in each group and cultured at 37°C. Cell samples were collected at 30 min, 60 min, 120 min, and 180 min after drug administration, respectively. BCECs were eluted with Hanks' balanced salt solution for 3 times and then incubated with 1% Triton X-100 (200 μL/per well) at 4°C for 12 h to lyse the cells.

[4] = tested on: plasma protein; test: Ultrafiltration analysis of free AMPB in in vitro plasma; format: in vitro ADME; conditions: 37°C, 2 h, p < 0.0001 vs AMPB group
Experimental: (§1) The equilibrium dialysis experiments were performed by the Thermo Fisher Scientific rapid equilibrium dialysis (RED) device. […] The prepared sample solutions were added into the holes of RED plate, respectively, with a 300 μL sample loading. In the corresponding buffer holes, 550 μL, 1% Triton X-100 solution was added. After the sample loading was completed, the sample was put into a 37°C constant temperature oscillator, and the dialysis was balanced at 100 rpm for 6 h. […] And then, the protein or drug-protein complexes with a molecular weight ≥ […] were retained by adding 1 mL of drug-containing plasma mixture into the Centrifree® overfiltration unit and centrifuging it at 13000 rpm and 4°C for 20 min.

[5] = tested on: Cryptococcus neoformans; test: H&E staining of brain pathology in mice with cryptococcal meningitis; format: in vivo; conditions: AMPB 3 mg/kg, POS 180 mg/kg, 14 days, compared with model group
Experimental: Except the control group, the mice in the other four groups were all injected with the lateral ventricular cryptococcus suspension at the dose of 1 × 10^8 CFU/mL, 5 μL for each mouse [19]. And the control group was injected with the same volume of normal saline. […] After 5 days, mice in each group were administered with the corresponding drugs mentioned above, continuously for 14 days. […] The mice were then anesthetized with ether for 24 h after the last administration. Next, the brain tissue was promptly removed for H&E staining and colonization detection of Cryptococcus neoformans. The mouse brain tissue was fixed with 4% paraformaldehyde at 25°C for 24 h, followed by washing with running water for 0.5 h [20, 21]. The brain was then dehydrated with 75%, 85%, 95%, and anhydrous ethanol for 6 h, 10 h, 4 h, and 2 h, respectively. After permeabilization with xylene I for 20 min and xylene II for 15 min, the brain was embedded in paraffin for 3 h and then cut into 5 μm slices using a microtome (RM2235, Leica Biosystems, Wetzlar, Germany) and roasted at 60°C. After dewaxing with xylene, the slices were stained with hematoxylin and eosin. Random photographs of three fields were acquired using a CX22 light microscope at ×400 magnification (Olympus Corporation, Tokyo, Japan).

[6] = tested on: Cryptococcus neoformans; test: Counting of Cryptococcus neoformans colonies in the brain tissue; format: in vivo; conditions: cryptococcal meningitis mice; AMPB 3 mg/kg, POS 180 mg/kg, 14 days; p < 0.01 compared with model group
Experimental: Except the control group, the mice in the other four groups were all injected with the lateral ventricular cryptococcus suspension at the dose of 1 × 10^8 CFU/mL, 5 μL for each mouse [19]. And the control group was injected with the same volume of normal saline. […] After 5 days, mice in each group were administered with the corresponding drugs mentioned above, continuously for 14 days. And the time and frequency of administration are described above. The mice were then anesthetized with ether for 24 h after the last administration. Next, the brain tissue was promptly removed for H&E staining and colonization detection of Cryptococcus neoformans. The brain tissue was homogenized with normal saline at a ratio of 1 : 1 (g : v). And then, 100 μL homogenate suspension was gradient diluted to concentrations of 1, 0.1, 0.01, and 0.001 g/mL. At each concentration, 10 μL of brain tissue suspension was uniformly applied to yeast extract peptone dextrose medium and cultured in a 30°C incubator for 48 h [22]. Then, the colony count of cryptococcus neoformans was performed.

[7] = tested on: plasma protein; test: Balanced (equilibrium) dialysis of free AMPB in in vitro plasma; format: in vitro ADME, mouse; conditions: 37°C, 6 h
Experimental: as §1

[8] = 5 μM zosuquidar, 5 μM Ko143 or 1 mM elacridar + 2.16 μM AMPB

Compound: C[C@@H]1[C@H](O)[C@@H](C)/C=C/C=C/C=C/C=C/C=C/C=C/C=C/[C@H](O[C@@H]2O[C@H](C)[C@@H](O)[C@H](N)[C@@H]2O)C[C@@H]2O[C@](O)(C[C@@H](O)C[C@@H](O)[C@H](O)CC[C@@H](O)C[C@@H](O)CC(=O)O[C@H]1C)C[C@H](O)[C@H]2C(=O)O [AMPB, amphotericin B]
plasma protein binding rate [1]: 90%

Compound: COc1ccc2c3c([nH]c2c1)[C@H](CC(C)C)N1C(=O)[C@H](CCC(=O)OC(C)(C)C)NC(=O)[C@@H]1C3 [Ko143]
AMPB brain tissue/plasma drug ratio [2]: no effect | brain tissue concentration of AMPB [2]: no effect | plasma drug concentration of AMPB [2]: no effect | effect on AMPB uptake by BCECs [3, 8]: no significant effect

effect on plasma concentration of free AMPB (ultrafiltration) ([4]; POS 4 μg/mL + AMPB 2.0 μg/mL in plasma): potentially increase | effect on plasma concentration of free AMPB (ultrafiltration) ([4]; POS 8 μg/mL + AMPB 2.0 μg/mL in plasma): potentially increase | effect on plasma free AMPB (balanced dialysis) ([7]; POS 4 μg/mL + AMPB 0.5 μg/mL in mouse plasma, p < 0.05 vs AMPB group): prominently elevate | effect on plasma free AMPB (balanced dialysis) ([7]; POS 8 μg/mL + AMPB 0.5 μg/mL in mouse plasma, p < 0.01 vs AMPB group): prominently elevate
Compound: CC[C@@H]([C@H](C)O)n1ncn(-c2ccc(N3CCN(c4ccc(OC[C@@H]5CO[C@@](Cn6cncn6)(c6ccc(F)cc6F)C5)cc4)CC3)cc2)c1=O [POS, posaconazole]
effect on AMPB uptake by BCECs ([3]; POS 2.85, 5.71 and 11.42 μM + 2.16 μM AMPB): no significant effect | cortical pathological injuries (inflammatory cell infiltration, bleeding), H&E staining [5]: improve the above pathological injuries | number of cryptococcus neoformans in the brain (colony culture) [6]: evidently inhibit | plasma protein binding rate [1]: 98%

Compound: COc1cc2c(cc1OC)CN(CCc1ccc(NC(=O)c3cccc4c(=O)c5cccc(OC)c5[nH]c34)cc1)CC2 [elacridar]
effect on AMPB uptake by BCECs [3, 8]: no significant effect

Compound: O[C@@H](COc1cccc2ncccc12)CN1CCN([C@@H]2c3ccccc3[C@@H]3[C@H](c4ccccc42)C3(F)F)CC1 [zosuquidar]
effect on AMPB uptake by BCECs [3, 8]: no significant effect
